# US20030171377A1, “Antidiabetic agents” (priority 2001, published 2003)
# How the values were obtained:
# [1] = test system: promoter/enhancer of the murine aP2 gene (PPAR-γ ligands); experiment: 3T3-L1 Transient Reporter Assay (AD3T3-L1 Reporter), Test E; settings: for AD3T3-L1 Reporter Max. % Rosi: maximal response relative to rosiglitazone
# [2] = test system: Ob/Ob diabetic mouse model; experiment: In vivo glucose lowering, Ob/Ob diabetic mouse model; settings: for In vivo % Rosiglitazone: glucose effect relative to rosiglitazone
# [3] = target: T1, PPAR alpha (Homo sapiens, UniProt Q07869); experiment: HepG2-hALPHA assay (PPAR alpha); type: cell-based; settings: HepG2 cells
# T1 construct: expressed in transfected cells; host or cells: HepG2
# T1 sequence (Q07869 1-468): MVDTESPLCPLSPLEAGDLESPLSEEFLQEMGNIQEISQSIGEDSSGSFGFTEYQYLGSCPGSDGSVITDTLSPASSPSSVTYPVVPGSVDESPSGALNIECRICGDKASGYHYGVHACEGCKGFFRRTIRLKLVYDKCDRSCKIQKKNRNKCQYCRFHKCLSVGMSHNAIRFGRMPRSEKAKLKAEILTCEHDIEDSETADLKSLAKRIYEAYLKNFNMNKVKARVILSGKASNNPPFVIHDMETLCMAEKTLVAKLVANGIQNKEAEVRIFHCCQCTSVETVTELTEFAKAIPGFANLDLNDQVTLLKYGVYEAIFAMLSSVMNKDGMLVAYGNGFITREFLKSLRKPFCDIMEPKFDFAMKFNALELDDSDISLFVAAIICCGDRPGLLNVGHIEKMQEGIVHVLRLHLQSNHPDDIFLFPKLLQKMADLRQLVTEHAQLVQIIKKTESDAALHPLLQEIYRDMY
# [4] = target: T2, PPAR gamma (Mus musculus, UniProt P37238); experiment: HepG2-mGAMMA assay (PPAR gamma); type: cell-based; settings: HepG2 cells
# T2 construct: expressed in transfected cells; host or cells: HepG2
# T2 sequence (P37238 1-505): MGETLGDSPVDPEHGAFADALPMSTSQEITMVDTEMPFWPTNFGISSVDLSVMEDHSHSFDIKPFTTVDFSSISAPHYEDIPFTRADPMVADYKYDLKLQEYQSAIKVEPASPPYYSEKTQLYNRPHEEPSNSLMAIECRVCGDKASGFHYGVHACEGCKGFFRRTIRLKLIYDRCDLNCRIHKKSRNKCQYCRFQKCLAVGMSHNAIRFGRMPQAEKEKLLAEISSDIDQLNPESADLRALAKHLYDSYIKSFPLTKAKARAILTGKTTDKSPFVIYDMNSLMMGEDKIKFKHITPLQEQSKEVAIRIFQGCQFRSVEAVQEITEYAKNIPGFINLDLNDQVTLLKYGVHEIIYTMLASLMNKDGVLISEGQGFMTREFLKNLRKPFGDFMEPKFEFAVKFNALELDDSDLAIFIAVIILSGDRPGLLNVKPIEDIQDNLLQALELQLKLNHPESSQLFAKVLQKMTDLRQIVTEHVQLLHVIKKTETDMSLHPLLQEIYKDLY
Structure (SMILES),AD3T3-L1 Reporter Max. % Rosi [1],melting point,further results
"Cc1oc(-c2ccccc2)nc1CCCc1ccc(CC(C(=O)O)n2cccn2)cc1 (racemic) [Example 0339165, 3-{4-[3-(5-Methyl-2-phenyl-oxazol-4-yl)-propyl]-phenyl}-2-pyrazol-1-yl-propionic acid]",90 % Rosi,–,In vivo % Rosiglitazone [2]: 102.49%
"O=C(O)[C@H](Cc1ccc(C#CCN2CCC(c3ccccc3)CC2)cc1)n1cccc1 [Example 121c, (S)-3-{4-[3-(4-Phenyl-piperidin-1-yl)-prop-1-ynyl]-phenyl}-2-pyrrol-1-yl-propionic acid]",–,201 to 203 °C,–
"O=C(O)[C@H](Cc1ccc(/C=C/CN2CCC(c3ccccc3)CC2)cc1)n1cccc1 [Example 129d, (S)-3-{4-[(E)-3-(4-Phenyl-piperidin-1-yl)-propenyl]-phenyl}-2-pyrrol-1-yl-propionic acid]",–,126 to 130 °C,–
"O=C(O)[C@H](Cc1ccc(CCCN2CCC(c3ccccc3)CC2)cc1)n1cccc1 [Example 131c, (S)-3-{4-[3-(4-Phenyl-piperidin-1-yl)-propyl]-phenyl}-2-pyrrol-1-yl-propionic acid]",–,95 to 100 °C,–
"Cc1oc(-c2ccccc2)nc1CCOc1ccc(CC(C(=O)O)(n2cccc2)C(F)(F)F)cc1 (centres unmarked) [Example 159, 3,3,3-Trifluoro-2-{4-[2-(5-methyl-2-phenyl-oxazol-4-yl)-ethoxy]-benzyl}-2-pyrrol-1-yl-propionic acid]",–,201 to 203 °C,–
Cc1oc(-c2ccccc2)nc1CCCc1ccc(CC(C(=O)O)n2cncn2)cc1 (centres unmarked) [Example 0336683],62.8 % Rosi,–,"EC50 ([1]; Mus musculus, 3T3-L1, read-out: AD3T3-L1 Reporter EC50(nM)): 9700 nM; In vivo Δ Glucose@ 20 mg/kg ([2]; 20 mg/kg): −53; In vivo % Rosiglitazone [2]: 24.38%"
Cc1oc(-c2ccccc2)nc1CCCc1ccc(CC(C(=O)O)n2ccnn2)cc1 (centres unmarked) [Example 0338227],59 % Rosi,–,–
CCCCCCCN(CCc1ccc(SC(C)(C)C(=O)O)cc1)C(=O)Nc1ccc(F)cc1F [GW9578],–,–,"HepG2-hAlpha Max. Res. % GW9578 [3]: 100.0 % GW9578; HepG2-hAlpha concentration of Max. Res. (uM, in brackets) [3]: 1 µM"
CN(CCOc1ccc(CC2SC(=O)NC2=O)cc1)c1ccccn1 (centres unmarked) [Rosiglitazone],–,–,HepG2-mGamma Max. Res. % Rosi. [4]: 100.0 % Rosi.
